Source: patent publication US7217702B2, “Selective antagonists of A2A adenosine receptors” (Adenosine Therapeutics, LLC, priority 2004, dated 2007)

molecular target: A2A adenosine receptor (Homo sapiens, UniProt P29274); test: Human Ki of the compound tables; type: binding; settings: receptor subtype not given
Sequence (P29274 whole entry): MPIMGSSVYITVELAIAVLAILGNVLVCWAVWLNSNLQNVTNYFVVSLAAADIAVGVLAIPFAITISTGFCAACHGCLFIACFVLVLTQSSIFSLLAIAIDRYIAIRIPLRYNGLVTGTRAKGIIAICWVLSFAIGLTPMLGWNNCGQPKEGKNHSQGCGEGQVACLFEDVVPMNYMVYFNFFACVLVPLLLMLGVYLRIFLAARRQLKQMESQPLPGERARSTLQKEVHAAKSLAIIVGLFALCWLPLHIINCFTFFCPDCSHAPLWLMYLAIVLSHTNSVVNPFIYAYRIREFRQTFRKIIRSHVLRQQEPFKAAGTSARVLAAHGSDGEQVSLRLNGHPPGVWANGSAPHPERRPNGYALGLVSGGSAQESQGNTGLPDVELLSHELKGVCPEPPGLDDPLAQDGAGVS

| Ki [nM] | SMILES |
| --- | --- |
| < 100 | Nc1nc(C#CC2(O)C3CC4CC(C3)CC2C4)nc2c1ncn2CC1CC1 (centres unmarked) [Compound 45, 9-Cyclopropylmethyl-2-{2-[hydroxy-adamantan-2-yl]ethyn-1-yl}adenine] |
| < 500 | CCC(CC)Nc1nc(C#C[C@]2(O)CCC[C@@H](C)C2)nc2c1ncn2CC(C)C [Compound 13, 9-Isobutyl-2-{2-[1(S)-hydroxy-3(R)-methyl-1-cyclohexyl]ethyn-1-yl}-N6-(3-pentyl)adenine] |
| < 100 | Nc1nc(C#CC2(O)C3CC4CC(C3)CC2C4)nc2c1ncn2C1CCC1 (centres unmarked) [Compound 49, 9-Cyclobutyl-2-{2-[hydroxy-adamantan-2-yl]ethyn-1-yl}adenine] |
| < 500 | CCC(CC)Nc1nc(C#C[C@]2(O)CCC[C@@H](C)C2)nc2c1ncn2CC1OCCO1 [Compound 22, 9-([1,3]-Dioxolan-2-ylmethyl)-2-{2-[1(S)-hydroxy-3(R)-methyl-1-cyclohexyl]ethyn-1-yl}-N6-(3-pentyl)adenine] |
| < 100 | Cn1cnc2c(N)nc(C#CC3(O)C4CC5CC(C4)CC3C5)nc21 (centres unmarked) [Compound 39, 2-{2-[Hydroxy-adamantan-2-yl]ethyn-1-yl}-9-methyladenine] |
| < 500 | Nc1nc(C#CC2(O)C3CC4CC(C3)CC2C4)nc2c1ncn2CCO (centres unmarked) [Compound 52, 2-{2-[Hydroxy-adamantan-2-yl]ethyn-1-yl}-9-(2-hydroxyethyl)adenine] |
| < 1000 | CCCCCCn1cnc2c(N)nc(C#CC3(O)C4CC5CC(C4)CC3C5)nc21 (centres unmarked) [Compound 42, 9-Hexyl-2-{2-[hydroxy-adamantan-2-yl]ethyn-1-yl}adenine] |
| < 100 | CC[C@H](C)Nc1nc(C#C[C@]2(O)CCC[C@@H](C)C2)nc2c1ncn2Cc1c(C)noc1C [Compound 33, N6-[(s)-(+)-sec-Butyl]-9-(3,5-dimethyl-isoxazol-4-ylmethyl)-2-{2-[1(S)-hydroxy-3(R)-methyl-1-cyclohexyl]ethyn-1-yl}adenine] |
| < 100 | C#CCn1cnc2c(N[C@@H](C)CC)nc(C#C[C@]3(O)CCC[C@@H](C)C3)nc21 [Compound 32, N6-[(S)-(+)-sec-Butyl]-2-{2-[1(S)-hydroxy-3(R)-methyl-1-cyclohexyl]ethyn-1-yl}-9-propargyl-adenine] |
| < 100 | CCC(CC)Nc1nc(C#C[C@]2(O)CCC[C@@H](C)C2)nc2c1ncn2Cc1ccccc1 [Compound 27, 9-Benzyl-2-{2-[1(S)-hydroxy-3(R)-methyl-1-cyclohexyl]ethyn-1-yl}-N6-(3-pentyl)adenine] |
| < 100 | C#CCn1cnc2c(N)nc(C#CC3(O)CC4CCC3C4)nc21 (single isomer, unassigned) [Compound 61, 2-{2-[Hydroxy-norbornan-2-yl]ethyn-1-yl}-9-propargyladenine] |
| < 100 | CCC(CC)Nc1nc(C#C[C@]2(O)CCC[C@@H](C)C2)nc2c1ncn2Cc1cccnc1 [Compound 28, 2-{2-[1(S)-Hydroxy-3(R)-methyl-1-cyclohexyl]ethyn-1-yl}-N6-(3-pentyl)-9-(pyridin-3-ylmethyl)adenine] |
| < 500 | C#CCn1cnc2c(N[C@@H](C)c3cccc4ccccc34)nc(C#C[C@]3(O)CCC[C@@H](C)C3)nc21 [Compound 35, 2-{2-[1(S)-Hydroxy-3(R)-methyl-1-cyclohexyl]ethyn-1-yl}-N6-[(s)-(−)-alpha-napthalen-1-yl-ethyl]-9-(propargyl)adenine] |
| < 500 | C[C@@H]1CCC[C@@](O)(C#Cc2nc(N)c3ncn(CC#Cc4cccs4)c3n2)C1 [Compound 10] |
| < 100 | C#CCCCn1cnc2c(NC(CC)CC)nc(C#C[C@]3(O)CCC[C@@H](C)C3)nc21 [Compound 18, 2-{2-[1(S)-Hydroxy-3(R)-methyl-1-cyclohexyl]ethyn-1-yl}-N6-(3-pentyl)-9-(pent-4-yne)adenine] |
| < 100 | C#CCn1cnc2c(NCc3ccccn3)nc(C#C[C@]3(O)CCC[C@@H](C)C3)nc21 [Compound 37, 2-{2-[1(S)-Hydroxy-3(R)-methyl-1-cyclohexyl]ethyn-1-yl}-9-(propargyl)-N6-(pyridin-2-ylmethyl)adenine] |
| < 500 | Nc1nc(C#CC2(O)C3CC4CC(C3)CC2C4)nc2c1ncn2CCCO (centres unmarked) [Compound 53] |
| < 100 | CCCn1cnc2c(N)nc(C#CC3(O)C4CC5CC(C4)CC3C5)nc21 (centres unmarked) [Compound 41, 2-{2-[Hydroxy-adamantan-2-yl]ethyn-1-yl}-9-propyladenine] |
| < 100 | C#CCn1cnc2c(NCc3cccc(OC)c3)nc(C#C[C@]3(O)CCC[C@@H](C)C3)nc21 [Compound 36, 2-{2-[1(S)-Hydroxy-3(R)-methyl-1-cyclohexyl]ethyn-1-yl}-N6-(3-methoxybenzyl)-9-(propargyl)adenine] |

| Ki [nM] | SMILES |
| --- | --- |
| < 100 | Cc1noc(C)c1Cn1cnc2c(N)nc(C#C[C@]3(O)CCC[C@@H](C)C3)nc21 [Compound 8, 9-(3,5-Dimethyl-isoxazol-4-ylmethyl)-2-{2-[1(S)-hydroxy-3(R)-methyl-1-cyclohexyl]ethyn-1-yl}adenine] |
| < 500 | CC(C)Cn1cnc2c(N)nc(C#CC3(O)C4CC5CC(C4)CC3C5)nc21 (centres unmarked) [Compound 44, 2-{2-[Hydroxy-adamantan-2-yl]ethyn-1-yl}-9-isobutyl-adenine] |
| < 500 | C[C@@H]1CCC[C@@](O)(C#Cc2nc(NCC(c3ccccc3)c3ccccc3)c3ncn(C)c3n2)C1 [Compound 34, N6-(2-Diphenylethyl)-2-{2-[1(S)-hydroxy-3(R)-methyl-1-cyclohexyl]ethyn-1-yl}-9-methyladenine] |
| < 500 | CCOC(=O)Cn1cnc2c(NC(CC)CC)nc(C#C[C@]3(O)CCC[C@@H](C)C3)nc21 [Compound 25, 9-(Acetic acid ethyl ester)-2-{2-[1(S)-hydroxy-3(R)-methyl-1-cyclohexyl]ethyn-1-yl}-N6-(3-pentyl)adenine] |
| < 100 | CCC(CC)Nc1nc(C#C[C@]2(O)CCC[C@@H](C)C2)nc2c1ncn2C1CCCC1 [Compound 15, 9-Cyclopentyl-2-{2-[1(S)-hydroxy-3(R)-methyl-1-cyclohexyl]ethyn-1-yl}-N6-(3-pentyl)adenine] |
| < 100 | CCC(CC)Nc1nc(C#C[C@]2(O)CCC[C@@H](C)C2)nc2c1ncn2Cc1c(C)noc1C [Compound 30, 9-(3,5-Dimethyl-isoxazol-4-ylmethyl)-2-{2-[1(S)-hydroxy-3(R)-methyl-1-cyclohexyl]ethyn-1-yl}-N6-(3-pentyl)adenine] |
| < 500 | Nc1nc(C#CC2(O)C3CC4CC(C3)CC2C4)nc2c1ncn2CC1CCCC1 (centres unmarked) [Compound 47, 9-Cyclopentylmethyl-2-{2-[hydroxy-adamantan-2-yl]ethyn-1-yl}adenine] |
| < 100 | CCCn1cnc2c(NC(CC)CC)nc(C#C[C@]3(O)CCC[C@@H](C)C3)nc21 [Compound 12, 2-{2-[1(S)-Hydroxy-3(R)-methyl-1-cyclohexyl]ethyn-1-yl}-N6-(3-pentyl)-9-propyladenine] |
| < 500 | CCC(CC)Nc1nc(C#C[C@]2(O)CCC[C@@H](C)C2)nc2c1ncn2CCCO [Compound 20, 2-{2-[1(S)-Hydroxy-3(R)-methyl-1-cyclohexyl]ethyn-1-yl}-9-(3-hydroxypropyl)-N6-(3-pentyl)adenine] |
| < 100 | CCC(CC)Nc1nc(C#C[C@]2(O)CCC[C@@H](C)C2)nc2c1ncn2CC1CC1 [Compound 14, 9-Cyclopropylmethyl-2-{2-[1(S)-hydroxy-3(R)-methyl-1-cyclohexyl]ethyn-1-yl}-N6-(3-pentyl)adenine] |
| < 100 | CCC(CC)Nc1nc(C#C[C@]2(O)CCC[C@@H](C)C2)nc2c1ncn2CCO [Compound 19, 9-(2-Hydroxyethyl)-2-{2-[1(S)-hydroxy-3(R)-methyl-1-cyclohexyl]ethyn-1-yl}-N6-(3-pentyl)adenine] |
| < 100 | C[C@@H]1CCC[C@@](O)(C#Cc2nc(N)c3ncn(CC#N)c3n2)C1 [Compound 4, 9-Acetonitrile-2-{2-[1(S)-hydroxy-3(R)-methyl-1-cyclohexyl]ethyn-1-yl}adenine] |
| < 100 | C#CCn1cnc2c(N)nc(C#CCC3CCN(C(=O)OC)CC3)nc21 [Compound 63, 2-{3-[1-(Methoxycarbanoyl)piperidin-4-yl]propyn-1-yl}-9-propargyladenine] |
| < 100 | Nc1nc(C#CC2(O)C3CC4CC(C3)CC2C4)nc2c1ncn2CC1CCC1 (centres unmarked) [Compound 46, 9-Cyclobutylmethyl-2-{2-[hydroxy-adamantan-2-yl]ethyn-1-yl}adenine] |
| < 100 | CCn1cnc2c(N)nc(C#CC3(O)C4CC5CC(C4)CC3C5)nc21 (centres unmarked) [Compound 40, 9-Ethyl-2-{2-[hydroxy-adamantan-2-yl]ethyn-1-yl}adenine] |
| < 100 | C=CCn1cnc2c(NC(CC)CC)nc(C#C[C@]3(O)CCC[C@@H](C)C3)nc21 [Compound 16, 9-Allyl-2-{2-[1(S)-hydroxy-3(R)-methyl-1-cyclohexyl]ethyn-1-yl}-N6-(3-pentyl)adenine] |
| < 100 | C[C@@H]1CCC[C@@](O)(C#Cc2nc(N)c3ncn(CC4CC4)c3n2)C1 [Compound 1, 9-Cyclopropylmethyl-2-{2-[1(S)-hydroxy-3(R)-methyl-1-cyclohexyl]ethyn-1-yl}adenine] |
| < 100 | C#CCCn1cnc2c(N)nc(C#CC3(O)C4CC5CC(C4)CC3C5)nc21 (centres unmarked) [Compound 62, 9-(But-3-ynyl)-2-{2-[hydroxy-adamantan-2-yl]ethyn-1-yl}adenine] |
| < 100 | C#CCn1cnc2c(N)nc(C#CC3(O)CC4CCC3C4)nc21 (single isomer, unassigned) [Compound 60, 2-{2-[Hydroxy-norbornan-2-yl]ethyn-1-yl}-9-propargyladenine] |
